# Results reported in ChEMBL document CHEMBL1255282, “Escherichia coli isolate coproducing 16S rRNA Methylase and CTX-M-type extended-spectrum beta-lactamase isolated from an outpatient in the United States” (2008).
# Active and inactive are the calls of the source. No cut-off for these calls is given here.
# What was measured:
# Format in all cases: functional
# Escherichia coli [1] = assay: Antibacterial activity against 16S rRNA methylase RmtB and CTX-M-65 ESBL producing Escherichia coli isolate ECRB1 by Etest
# Escherichia coli [2] = assay: Antibacterial activity against 16S rRNA methylase RmtB and CTX-M-65 ESBL producing Escherichia coli DH10B by Etest
# Escherichia coli [3] = assay: Antibacterial activity against Escherichia coli DH10B harboring pBCSK expressing rmtB gene by Etest
# Escherichia coli [4] = assay: Antibacterial activity against 16S rRNA methylase rmtB and CTX-M-65 ESBL producing rifampin resistant Escherichia coli isolate ECRB1 by Etest
Compound,MIC (Escherichia coli [1]) [µg/mL],MIC (Escherichia coli [2]) [µg/mL],MIC (Escherichia coli [3]) [µg/mL],MIC (Escherichia coli [4]) [µg/mL],Activity (Escherichia coli [1])
GENTAMICIN,> 256,> 128,> 256,> 128,
O=C(O)c1cn(C2CC2)c2cc(N3CCNCC3)c(F)cc2c1=O,,,,,Active
NC[C@H]1O[C@H](O[C@H]2[C@H](O)[C@@H](O[C@H]3O[C@H](CO)[C@@H](O)[C@H](N)[C@H]3O)[C@H](N)C[C@@H]2N)[C@H](N)C[C@@H]1O [TOBRAMYCIN],> 256,≥ 128,> 256,≥ 128,
NCC[C@H](O)C(=O)N[C@@H]1C[C@H](N)[C@@H](O[C@H]2O[C@H](CN)[C@@H](O)[C@H](O)[C@H]2O)[C@H](O)[C@H]1O[C@H]1O[C@H](CO)[C@@H](O)[C@H](N)[C@H]1O [AMIKACIN],> 256,≥ 128,> 256,≥ 128,
CO/N=C(\C(=O)N[C@@H]1C(=O)N2C(C(=O)O)=C(COC(C)=O)CS[C@H]12)c1csc(N)n1 [CEFOTAXIME],64,96,,96,
